The text below walks through data of patent US12441775B2, “BCL-W polypeptides and mimetics for treating or preventing chemotherapy-induced peripheral neuropathy and hearing loss” (Dana-Farber Cancer Institute, Inc., priority 2016, dated 2025).

Format in all cases: cell-based, rat
The subject of series [1] is axonal mitochondria of E15 DRG neurons. Put plainly: TMRE measurement of mitochondrial membrane potential in microfluidic cultures. The following applies: paclitaxel added to distal axon compartment. The protocol:
Microfluidic chambers cultures were prepared as described (see, e.g., Fenstermacher et al., Nature Neuroscience, 19:690-696 (2016)), with modifications. Briefly, 3×10^4E15 DRG neurons (4 μl volume) were plated into one channel of a microfluidic device (Xona Microfluidics, SND450) affixed to a PDL/laminin-coated cover glass (Fisherbrand Microscope Cover Glass; 24×40-1.5). Cells were plated in media with 0.3 μM AraC; 50 ng/mL NGF+BDNF was added to cell body wells, and 100 ng/ml was added to axon wells. On day 2, cell body neurotrophins were reduced to 10 ng/ml. On day 4, cell body neurotrophins were reduced to 1 ng/ml and axon neurotrophins were reduced to 10 ng/ml. For paclitaxel treatment experiments, 60 μM paclitaxel or 0.1% DMSO vehicle control was added on day 5 to axon wells for 48 hours. Cells were fixed at room temperature with 4% PFA diluted 1:2 in media for 10 min, then undiluted 4% PFA for an additional 10 min.
Tetramethylrhodamine ethyl ester measurements of mitochondrial membrane potential. […] Fluorescence intensity of axonal mitochondria was measured by dividing the fluorescence intensity of each mitochondria (Fm) by the background fluorescence intensity of a nearby cytoplasmic region (Fc). Fluorescence intensity was measured using NIH ImageJ software for 80 mitochondria per condition across three experiments, by an observer blind to condition.

Another series deals with Bcl2. The experiment in a line: qRT-PCR and Western blot of cell body and axon lysate after paclitaxel. As to conditions: 24 hours paclitaxel to axons; axons or cell bodies. The protocol: (§1) Cell culture. Compartmented chamber (Campenot) cultures were prepared as described (see, e.g., Fenstermacher et al., Springer Protocols: Neuromethods, 103:105-124 (2015)), with modifications. Briefly, DRGs from embryonic day 15 (E15) rats of either sex were dissected and trypsinized. DRGs (1.2×10^5 cells) were plated in the center compartment of a Teflon divider (Camp10, Tyler Research; Campenot, 1982) affixed to a p35 culture dish coated with growth factor reduced Matrigel basement membrane (BD Biosciences) 1:45 in DMEM. Cultures were maintained in media consisting of Neurobasal (Invitrogen) with 2% B27 supplement (Invitrogen), 1% penicillin-streptomycin, 1% GlutaMAX (Life Technologies), 0.08% glucose, and 0.3 μM cytosine arabinoside (AraC) at 37° C., 7.5% CO2; BDNF+NGF (PeproTech) were added to the cell body compartment at a concentration of 10 ng/ml and to the axon compartment at a concentration of 100 ng/ml for 2d. On day 3, media was replaced and the AraC was omitted. On day 5, neurotrophins were removed from the cell body compartment and reduced to 1 ng/ml in the axon compartments for 3-5 days. For paclitaxel treatment experiments, 30 μM paclitaxel (Sigma-Aldrich) or vehicle control (0.1% DMSO) was added to either cell body or distal axon compartments on day 7 for 24 hours. For calpain inhibition experiments, 20 μM calpain inhibitor III (VWR) and paclitaxel were added simultaneously to distal axon compartment.
(§2) Western blotting. […] Using NIH ImageJ software, protein levels were quantified and levels of protein were normalized to GAPDH.
(§3) Quantitative reverse transcription-PCR. […] Quantitative real-time RT-PCR was performed using Taqman Gene expression assays (Applied Biosystems) to assess the expression of bclw (Rn00821025_g1), bcl2 (Rn99999125_m1), and bclxL (Rn00580568_g1). […]
(In qPCR the cycle at which signal appears reflects the starting amount.)

Another series relates to BclxL. The description is as above. As to conditions: 24 hours paclitaxel to axons; axons or cell bodies. On the procedure: as §1, §2, §3
In a further series the test system is Bclw. Described as above. As to conditions: 24 hours paclitaxel to axons; axons vs cell bodies. The protocol: as §1, §2, §3

Consider `CC(=O)O[C@H]1C(=O)[C@@]2(C)[C@H]([C@H](OC(=O)c3ccccc3)[C@]3(O)C[C@H](OC(=O)[C@H](O)[C@@H](NC(=O)c4ccccc4)c4ccccc4)C(C)=C1C3(C)C)[C@]1(OC(C)=O)CO[C@@H]1C[C@@H]2O` [paclitaxel], for which, in series [1], the “axonal mitochondrial membrane potential (TMRE Fm/Fc)” value is on record as “reduced axonal mitochondrial membrane potential”. Further, the “Bcl2 mRNA or protein” value with Bcl2 is reported as “did not alter”. In addition, the “BclxL mRNA or protein” value with BclxL is reported as “did not alter”. The “Bclw mRNA and protein levels” value in the series on Bclw is “reduced Bclw mRNA and protein levels selectively in axons and not in cell bodies”.
